Source: patent US20160051542A1 (CHANRX CORPORATION, priority 2013, published 2016)

Assays:
[1] = human, in vivo
Text: Furthermore, steady state plasma levels are achieved within 3 days of oral dosing in some studies and up to 14 days in other studies. In human studies, the typical time is between about 3-11 days for reaching steady state status. […] This provides for an opportunity to achieve steady state plasma levels for restoration or maintenance of normal sinus rhythm in mammals.

[2] = Adverse events in the single dose AF/AFL study (Example 1); assay type: in vivo, human
Text: (§1) The vanoxerine or identical appearing placebo was randomly assigned and administered in a double-blinded fashion.

[3] = tested on: recent onset symptomatic AF/AFL; test: Randomised double-blind single oral dose study: conversion of recent onset symptomatic AF/AFL to sinus rhythm (Example 1); assay type: in vivo, human; settings: for Conversion of Atrial Flutter, %: pure atrial flutter subjects (N 4), any time within 24 hours
Method: as §1
Inclusion criteria included: male or female over the age of […], symptomatic AF/AFL for more than 3 hours and less than 7 days, as dated by symptoms, and adherence to local clinical standards or the […] practice guidelines for AF/AFL regarding thromboembolic event prevention and treatment
Exclusion Criteria Included: • (a) Systolic blood pressure <100 mmHG, HR <50 bpm • (b) Average QTcF >440 ms, […] >140 ms • (c) Paced atrial or ventricular rhythm • (d) Serum potassium <3.5 meq/L • (e) History of receiving another Class 1 or Class III antiarrhythmic drug within 3 days of randomization, amiodarone (oral or IV) within 3 months • (f) Acute coronary syndrome within 30 days prior to randomization • (g) Aortic stenosis with AVA ≦1.0 cm^2 • (h) Mitral stenosis with MVA of <1.5 cm^2 • (i) Acute pulmonary edema/embolism • (j) Stroke within 30 days or TIA within 48 hours • (k) Untreated hyperthyroidism • (l) Acute pericarditis • (m) Postoperative AF/AFL within 7 days • (n) History of failed Direct current cardioversion • (o) History of polymorphic ventricular tachycardia (e.g. Torsade de Pointes) • (p) History or family history of long QT syndrome • (q) History of ventricular tachycardia requiring drug or device therapy • (r) History of NYHA Heart Failure Class III or IV or recent (within 1 month) onset of heart failure not related to rapid ventricular response AF • (s) Ejection fraction of 35% or less • (t) History of prior ablation therapy for cardiac arrhythmias
4-Hour Efficacy Endpoints: • (a) the proportion of subjects who convert to sinus rhythm for at least 1 minute through 4 hours after start of study drug. • (b) the proportion of subjects in sinus rhythm at 4 hours after start of study drug • (c) time to restoration of sinus rhythm within 4 hours
24-Hour Efficacy Endpoints • (a) the proportion of subjects who convert to sinus rhythm for at least 1 minute through 24 hours after start of study drug. • (b) the proportion of subjects in sinus rhythm at 24 hours after start of study drug • (c) time to restoration of sinus rhythm within 24 hours
Statistical Considerations: • (a) Placebo subjects in all dose cohorts pooled to create one placebo dose group for comparison to the active dose groups • (b) each dose group compared separately with placebo • (c) Fisher's exact tests for difference in proportions between each dose level and placebo • (d) Time to restoration tested using the Kaplan-Meier method with difference in survivor functions; Log-Rank test used to compare each dose level with placebo • (e) No correction for multiple comparisons among dose groups.

[4] = Daily dosing for 7 days in four patients (Example 4); assay type: in vivo, human; settings: 50, 100 and 150 mg daily, all patients
[5] = Daily dosing for 11 consecutive days, PK and hemodynamics (Example 2); assay type: in vivo, human
[6] = Preliminary studies of daily use over 7, 10 and 14 days; assay type: in vivo; settings: 75, 100, 125 and 150 mg a day over 7, 10 and 14 days
Text: However, control and prevention of events of cardiac arrhythmia are important to these patients to prevent future re-occurrences and the deleterious effects and morbidity.

[7] = Daily dosing for 14 days in healthy patients (Example 3); assay type: in vivo, human; settings: 25, 75 and 125 mg daily for 14 days, meal 15 minutes prior to dosing
Method: A standardized meal was served 15 minutes prior to each dosing.

SMILES: Fc1ccc(C(OCCN2CCN(CCCc3ccccc3)CC2)c2ccc(F)cc2)cc1 [vanoxerine, 1-[2-[bis(4-fluorophenyl)methoxy]ethyl]-4-(3-phenylpropyl)piperazine]
- Time for reaching steady state status [1]: 3 to 11 days
- Number of adverse events reported ([2]; 200 mg): 8 AEs
- Subjects reporting adverse events, N (%) ([2]; 200 mg (22 subjects)): 4 (18%) subjects
- Number of adverse events reported ([2]; 300 mg): 12 AEs
- Subjects reporting adverse events, N (%) ([2]; 300 mg (25 subjects)): 7 (28%) subjects
- Number of adverse events reported ([2]; 400 mg): 23 AEs
- Subjects reporting adverse events, N (%) ([2]; 400 mg (25 subjects)): 10 (40%) subjects
- Tolerability ([2]; 200, 300 and 400 mg single doses): well tolerated at all doses
- 1:1 AFL post dose ([2]; all doses): No 1:1 AFL seen post dose in any subject
- Serious adverse events, all doses ([2]; all doses, neither related to the study drug): two
- Proarrhythmia ([2]; single doses 200-400 mg): absence of proarrhythmia
- Percent conversion to sinus rhythm ([3]; 200 mg single dose, 0-4 hr): 18%
- Percent conversion to sinus rhythm ([3]; 200 mg single dose, 0-8 hr): 45%
- Percent conversion to sinus rhythm ([3]; 200 mg single dose, 0-24 hr): 59%
- Conversion of Atrial Flutter, % ([3]; 200 mg): 50%
- Percent conversion to sinus rhythm ([3]; 300 mg single dose, 0-4 hr): 40%
- Percent conversion to sinus rhythm ([3]; 300 mg single dose, 0-8 hr): 52%
- Percent conversion to sinus rhythm ([3]; 300 mg single dose, 0-24 hr): 64%
- Conversion of Atrial Flutter, % ([3]; 300 mg): 75%
- Percent conversion to sinus rhythm ([3]; 400 mg single dose, 0-4 hr): 52%
- Percent conversion to sinus rhythm ([3]; 400 mg single dose, 0-8 hr): 76%
- Percent conversion to sinus rhythm ([3]; 400 mg single dose, 0-24 hr): 84%
- Conversion of Atrial Flutter, % ([3]; 400 mg): 75%
- Conversion to sinus rhythm ([3]; all doses of vanoxerine, at about 7 hours): greater than 40%
- Conversion to sinus rhythm ([3]; all doses, at 12 hours): greater than 50%
- Conversion to sinus rhythm ([3]; all doses, at about 16 hours): ~60%
- Time to steady state levels [4]: within one week
- Plasma levels ([5]; 25 mg daily): not detectable after 8 hours
- PK linearity ([5]; 50, 75 and 100 mg doses): linear and dose proportional
- Plasma levels ([5]; 50, 75 and 100 mg doses): detectable at 24 hours
- Time at which steady state was reached ([5]; 50, 75 and 100 mg doses): ≤ 8 days
- Heart rate and systolic blood pressure ([5]; 75 and 100 mg doses): increased slightly in most subjects
- Heart rate and systolic blood pressure [6]: may lead to increased heart rate and systolic blood pressure
- Adverse events [7]: No significant adverse events
